# Data published in PubChem BioAssay (NCI).
#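 Step 1: Grow cells in 96-well plates. Step 2: Expose to compound for 48 hours at 5 concentrations. Step 3: Interpolate endpoints linearly; if unreached, use highest concentration. TGI denotes the concentration required for complete inhibition of growth.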
# Columns and labels:
# Experiment in all cases: growth of human tumour cells (NCI), 48 h
# TK-10 renal = test system: TK-10 renal
# OVCAR-8 ovarian = test system: OVCAR-8 ovarian
# IGROV1 ovarian = test system: IGROV1 ovarian
# SF-268 CNS = test system: SF-268 CNS
# COLO 205 colon = test system: COLO 205 colon
# A498 renal = test system: A498 renal
# U251 CNS = test system: U251 CNS
# UACC-62 melanoma = test system: UACC-62 melanoma
# SK-MEL-2 melanoma = test system: SK-MEL-2 melanoma
# M14 melanoma = test system: M14 melanoma
# HOP-92 NSCLC = test system: HOP-92 NSCLC
# MDA-MB-435 = test system: MDA-MB-435
# RXF 393 renal = test system: RXF 393 renal
# OVCAR-3 ovarian = test system: OVCAR-3 ovarian
# LOX IMVI melanoma = test system: LOX IMVI melanoma
# ACHN renal = test system: ACHN renal
# SK-MEL-5 melanoma = test system: SK-MEL-5 melanoma
# SNB-19 CNS = test system: SNB-19 CNS
# SR leukemia = test system: SR leukemia
# HS 578T breast = test system: HS 578T breast
# KM12 colon = test system: KM12 colon
# SK-OV-3 ovarian = test system: SK-OV-3 ovarian
# DU-145 prostate = test system: DU-145 prostate
# OVCAR-5 ovarian = test system: OVCAR-5 ovarian
# CAKI-1 renal = test system: CAKI-1 renal
# A549 NSCLC = test system: A549 NSCLC
# SK-MEL-28 melanoma = test system: SK-MEL-28 melanoma
# HCT-15 colon = test system: HCT-15 colon
# MDA-N = test system: MDA-N
# NCI/ADR-RES ovarian = test system: NCI/ADR-RES ovarian
# NCI-H23 lung = test system: NCI-H23 lung
# UO-31 renal = test system: UO-31 renal
# 786-0 renal = test system: 786-0 renal
# NCI-H522 lung = test system: NCI-H522 lung
# BT-549 breast = test system: BT-549 breast
# K-562 leukemia = test system: K-562 leukemia
# SF-295 CNS = test system: SF-295 CNS
# PC-3 prostate = test system: PC-3 prostate
# HCC-2998 colon = test system: HCC-2998 colon
# MOLT-4 leukemia = test system: MOLT-4 leukemia
# EKVX NSCLC = test system: EKVX NSCLC
# SN12C renal = test system: SN12C renal
# MDA-MB-231 breast = test system: MDA-MB-231 breast
# OVCAR-4 ovarian = test system: OVCAR-4 ovarian
# NCI-H460 lung = test system: NCI-H460 lung
# NCI-H226 lung = test system: NCI-H226 lung
# HL-60(TB) leukemia = test system: HL-60(TB) leukemia
# HT29 colon = test system: HT29 colon
# MALME-3M melanoma = test system: MALME-3M melanoma
# SW-620 colon = test system: SW-620 colon
# RPMI-8226 leukemia = test system: RPMI-8226 leukemia
# HOP-62 NSCLC = test system: HOP-62 NSCLC
# MCF7 breast = test system: MCF7 breast
# SNB-75 CNS = test system: SNB-75 CNS
# T-47D breast = test system: T-47D breast
# UACC-257 melanoma = test system: UACC-257 melanoma
# HCT-116 colon = test system: HCT-116 colon
# DLD-1 colon = test system: DLD-1 colon
# CCRF-CEM leukemia = test system: CCRF-CEM leukemia
# DMS 114 small cell lung = test system: DMS 114 small cell lung
# SF-539 CNS = test system: SF-539 CNS
# DMS 273 small cell lung = test system: DMS 273 small cell lung
# LXFL 529 NSCLC = test system: LXFL 529 NSCLC
compound,measurement,setting,value
CC1(C)[C@@H]2C[C@H]1c1cnc(-c3ccccn3)cc1[C@H]2C(O)[C@@H]1c2cc(-c3ccccn3)ncc2[C@H]2C[C@@H]1C2(C)C (stereo partly drawn),TGI,TK-10 renal,> 100 µM
same,TGI,OVCAR-8 ovarian,3.1 µM
same,TGI,IGROV1 ovarian,6.98 µM
same,TGI,SF-268 CNS,16.6 µM
same,TGI,COLO 205 colon,4.06 µM
same,TGI,A498 renal,6.24 µM
same,TGI,U251 CNS,7.45 µM
same,TGI,UACC-62 melanoma,7.66 µM
same,TGI,SK-MEL-2 melanoma,13 µM
same,TGI,M14 melanoma,1.85 µM
same,TGI,HOP-92 NSCLC,21.8 µM
same,TGI,MDA-MB-435,> 38.5 µM
same,TGI,RXF 393 renal,1.62 µM
same,TGI,OVCAR-3 ovarian,1.77 µM
same,TGI,LOX IMVI melanoma,4.52 µM
same,TGI,ACHN renal,1.54 µM
same,TGI,SK-MEL-5 melanoma,1.42 µM
same,TGI,SNB-19 CNS,15.5 µM
same,TGI,SR leukemia,0.354 µM
same,TGI,HS 578T breast,37.3 µM
same,TGI,KM12 colon,24.7 µM
same,TGI,SK-OV-3 ovarian,14.8 µM
same,TGI,DU-145 prostate,3.47 µM
same,TGI,OVCAR-5 ovarian,18 µM
same,TGI,CAKI-1 renal,2.43 µM
same,TGI,A549 NSCLC,18.3 µM
same,TGI,SK-MEL-28 melanoma,29.7 µM
same,TGI,HCT-15 colon,25.2 µM
same,TGI,MDA-N,11 µM
same,TGI,NCI/ADR-RES ovarian,1.41 µM
same,TGI,NCI-H23 lung,2.79 µM
same,TGI,UO-31 renal,0.445 µM
same,TGI,786-0 renal,4.69 µM
same,TGI,NCI-H522 lung,3.06 µM
same,TGI,BT-549 breast,3.8 µM
same,TGI,K-562 leukemia,> 52 µM
same,TGI,SF-295 CNS,11.4 µM
same,TGI,PC-3 prostate,11 µM
same,TGI,HCC-2998 colon,20.8 µM
same,TGI,MOLT-4 leukemia,0.505 µM
same,TGI,EKVX NSCLC,13.3 µM
same,TGI,SN12C renal,1.89 µM
same,TGI,MDA-MB-231 breast,3.89 µM
same,TGI,OVCAR-4 ovarian,> 9.95 µM
same,TGI,NCI-H460 lung,24.3 µM
same,TGI,NCI-H226 lung,0.502 µM
same,TGI,HL-60(TB) leukemia,0.112 µM
same,TGI,HT29 colon,3.57 µM
same,TGI,MALME-3M melanoma,21.6 µM
same,TGI,SW-620 colon,47.1 µM
same,TGI,RPMI-8226 leukemia,1.93 µM
same,TGI,HOP-62 NSCLC,5.58 µM
same,TGI,MCF7 breast,13.5 µM
same,TGI,SNB-75 CNS,87.3 µM
same,TGI,T-47D breast,53.1 µM
same,TGI,UACC-257 melanoma,26 µM
same,TGI,HCT-116 colon,5.34 µM
CCOC(=O)C(NC(=O)c1ccc(N=NN(C)C)cc1)C(C)C (stereo not drawn),TGI,TK-10 renal,> 100 µM
same,TGI,OVCAR-8 ovarian,> 100 µM
same,TGI,IGROV1 ovarian,> 100 µM
same,TGI,SF-268 CNS,> 100 µM
same,TGI,COLO 205 colon,> 100 µM
same,TGI,DLD-1 colon,> 100 µM
same,TGI,A498 renal,> 100 µM
same,TGI,CCRF-CEM leukemia,> 100 µM
same,TGI,DMS 114 small cell lung,> 100 µM
same,TGI,U251 CNS,> 100 µM
same,TGI,UACC-62 melanoma,> 100 µM
same,TGI,SK-MEL-2 melanoma,> 100 µM
same,TGI,M14 melanoma,> 100 µM
same,TGI,OVCAR-3 ovarian,> 100 µM
same,TGI,LOX IMVI melanoma,> 100 µM
same,TGI,ACHN renal,> 100 µM
same,TGI,SK-MEL-5 melanoma,> 100 µM
same,TGI,SNB-19 CNS,> 100 µM
same,TGI,SR leukemia,> 100 µM
same,TGI,SF-539 CNS,> 100 µM
same,TGI,KM12 colon,> 100 µM
same,TGI,DMS 273 small cell lung,> 100 µM
same,TGI,SK-OV-3 ovarian,> 100 µM
same,TGI,OVCAR-5 ovarian,> 100 µM
same,TGI,CAKI-1 renal,> 100 µM
same,TGI,A549 NSCLC,> 100 µM
same,TGI,SK-MEL-28 melanoma,> 100 µM
same,TGI,HCT-15 colon,> 100 µM
same,TGI,LXFL 529 NSCLC,> 100 µM
same,TGI,NCI-H23 lung,> 100 µM
same,TGI,UO-31 renal,> 100 µM
same,TGI,786-0 renal,> 100 µM
same,TGI,NCI-H522 lung,> 100 µM
same,TGI,K-562 leukemia,> 100 µM
same,TGI,SF-295 CNS,> 100 µM
same,TGI,HCC-2998 colon,> 100 µM
same,TGI,MOLT-4 leukemia,> 100 µM
same,TGI,EKVX NSCLC,> 100 µM
same,TGI,SN12C renal,> 100 µM
same,TGI,OVCAR-4 ovarian,> 100 µM
same,TGI,NCI-H460 lung,> 100 µM
same,TGI,NCI-H226 lung,> 100 µM
same,TGI,HL-60(TB) leukemia,> 100 µM
same,TGI,HT29 colon,> 100 µM
same,TGI,MALME-3M melanoma,> 100 µM
same,TGI,SW-620 colon,> 100 µM
same,TGI,RPMI-8226 leukemia,> 100 µM
same,TGI,HOP-62 NSCLC,> 100 µM
same,TGI,SNB-75 CNS,> 100 µM
same,TGI,UACC-257 melanoma,> 100 µM
same,TGI,HCT-116 colon,> 100 µM
